In assay [1] the test system is Mouse-derived myoblast line C2C12 cell. As to the kind of experiment: Cell differentiation promoting activity in myoblast (creatine kinase activity). The note with it: 2 days, without compound = 100%; for activity at 1 µM / activity at 0.01 µM / activity at 10 µM: Mus musculus, C2C12, 48 h, read-out: creatine kinase activating action (%); for activity at 0.01 µM: compound at 0.01 μM (**); for activity at 10 µM: compound at 10 μM (*). The format is cell-based. Here is the method:
• (1) Mouse-derived myoblast line C2C12 cell (Dainippon Pharmaceutical Co., Ltd.) was subcultured in a high glucose Eagle's modified Dulbecco's medium (GIBCO) added with 10% calf fetal bovine serum (GIBCO), 100 unit/mL penicillin and 100 μg/mL streptomycin (hereinafter to be referred to as a growth medium), plated at 5000 cells/cm^2 and cultured at 37° C., under 5% CO2. • (2) When the cells reached subconfluence of not less than 90%, the medium was exchanged with high glucose Eagle's modified Dulbecco's medium (GIBCO) added with (i) 2% horse serum (GIBCO) and (ii) penicillin, streptomycin and a test compound (hereinafter to be referred to as a differentiation medium) and the cells were cultured for 2 days. To the control group was added DMSO solution instead of the test compound. • (3) The cells were washed with PBS, 0.5% NP-40 solution was added, and the cells were lysed by freeze-thawing. The cell extract was centrifuged and the creatine kinase activity in the supernatant was measured as an index of muscle differentiation. The creatine kinase activity was measured using CPKII Test Wako (Wako Pure Chemical Industries, Ltd.) according to the manual of the kit.
The numerical values in Table 1 show creatine kinase activity of the compound addition group when the creatine kinase activity without addition of the compound is 100%, and * means measurement with addition of the compound at 10 μM, ** at 0.01 μM, and others at 1 μM.

Assay [2] concerns C2C12 cell. As to the kind of experiment: Sugar metabolism promoting activity in muscle cell (lactic acid production). The format is cell-based, Mouse. To be noted: compound 1 μM, 2 days, C2C12 myotubes, without drug = 100%; for activity at 1 µM: Mus musculus, 48 h, read-out: lactic acid production promoting action (%). Here is the method: • (1) In the same manner as in Example 1, C2C12 cell was cultured in a growth medium. After reaching subconfluence of not less than 90%, the medium was exchanged with a differentiation medium and the cells were cultured for about 7 days while exchanging the medium every 2 or 3 days until the cells differentiated to form a myotube. • (2) After confirmation of myotube formation under a microscope, the test compound (1 μM) was added to a differentiation medium and cultured for 2 days. The cells were washed with Krebs-Ringer HEPES phosphate buffer (10 mM HEPES, pH 7.4, 131 mM NaCl, 4.7 mM KCl, 2.5 mM CaCl2—2H2O, 1.2 mM MgSO4—7H2O, 1.2 mM KH2PO4), the medium was exchanged with Krebs-Ringer HEPES phosphate buffer added with 5 mM glucose, 0.2% fatty acid-free bovine serum albumin, and cultured at 37° C. for 4 hr. • (3) The lactic acid concentration of the culture supernatant was measured using Detarminer LA kit (Kyowa Medex Co., Ltd.).
The numerical values in Table 2 show the concentration of the compound addition group with the concentration of lactic acid without addition of a drug as 100%.

Each structure is given as a SMILES string.

The values below come from patent US20130184272A1, “DIABETES THERAPEUTIC AGENT” (TAKEDA PHARMACEUTICAL COMPANY LIMITED, priority 2010, published 2013).

On to `COCCOc1sc(C(N)=O)c2c1-c1c(cnn1C)CC2` [Ref. Ex. 4, 8-(2-methoxyethoxy)-1-methyl-4,5-dihydro-1H-thieno[3,4-g]indazole-6-carboxamide], for which the activity at 1 µM in assay [1] (compound at 1 μM) turned out to be 138%; in assay [2], 239%.
For `Cn1ncc2c1-c1c(Oc3ccc(C[C@H](N)C(=O)N4CCOCC4)cc3)sc(C(N)=O)c1CC2` [Ref. Ex. 25, 8-{4-[(2S)-2-amino-3-morpholin-4-yl-3-oxopropyl]phenoxy}-1-methyl-4,5-dihydro-1H-thieno[3,4-g]indazole-6-carboxamide], in that order: 180% and 235%.
Consider `Cn1ncc2c1-c1c(Cc3ccccc3)sc(C(N)=O)c1CC2` [Ref. Ex. 16, 8-benzyl-1-methyl-4,5-dihydro-1H-thieno[3,4-g]indazole-6-carboxamide], for which the activity at 0.01 µM in assay [1] was found to be 150%. Further, the activity at 1 µM in assay [2] came out at 194%.
For `Cc1ccc(Oc2sc(C(N)=O)c3c2-c2c(cnn2C)CC3)cn1` [Ref. Ex. 31, 1-methyl-8-[(6-methylpyridin-3-yl)oxy]-4,5-dihydro-1H-thieno[3,4-g]indazole-6-carboxamide], in that order: 150% and 253%.
For `Cn1ncc2c1-c1c(Oc3ccc(OCc4ccc5ccccc5n4)cc3)sc(C(N)=O)c1CC2` [Ref. Ex. 10, 1-methyl-8-[4-(quinolin-2-ylmethoxy)phenoxy]-4,5-dihydro-1H-thieno[3,4-g]indazole-6-carboxamide], in that order: 193% and 259%.
In the case of `Cn1ncc2c1-c1c(S(=O)(=O)c3ccc4c(c3)OCO4)sc(C(N)=O)c1CC2` [Ref. Ex. 39, 8-(1,3-benzodioxol-5-ylsulfonyl)-1-methyl-4,5-dihydro-1H-thieno[3,4-g]indazole-6-carboxamide], the activity at 1 µM was found to be 176% in assay [1] (compound at 1 μM) and 207% in assay [2].
For the compound `Cn1ncc2c1-c1c(Oc3ccc(OCc4ccncc4)cc3)sc(C(N)=O)c1CC2` [Ref. Ex. 23, 1-methyl-8-[4-(pyridin-4-ylmethoxy)phenoxy]-4,5-dihydro-1H-thieno[3,4-g]indazole-6-carboxamide], the activity at 0.01 µM in assay [1] worked out at 191%. The activity at 1 µM in assay [2] worked out at 252%.
As for `Cn1ncc2c1-c1c(Oc3ncccn3)sc(C(N)=O)c1CC2` [Ref. Ex. 37, 1-methyl-8-(pyrimidin-2-yloxy)-4,5-dihydro-1H-thieno[3,4-g]indazole-6-carboxamide], the activity at 1 µM in assay [1] (compound at 1 μM) worked out at 129%; in assay [2], 255%.
On to `Cn1ncc2c1-c1c(Oc3cccnc3OCCN3CCCC3=O)sc(C(N)=O)c1CC2` [Ref. Ex. 40, 1-methyl-8-({2-[2-(2-oxopyrrolidin-1-yl)ethoxy]pyridin-3-yl}oxy)-4,5-dihydro-1H-thieno[3,4-g]indazole-6-carboxamide], for which the activity at 1 µM in assay [1] (compound at 1 μM) and in assay [2] was 120% each time.
As for `Cn1ncc2c1-c1c(OC3CCCC3)sc(C(N)=O)c1CC2` [Ref. Ex. 17, 8-(cyclopentyloxy)-1-methyl-4,5-dihydro-1H-thieno[3,4-g]indazole-6-carboxamide], the activity at 1 µM in assay [1] (compound at 1 μM) came to 177%; in assay [2], 141%.
For `Cc1cccc(Oc2sc(C(N)=O)c3c2-c2c(cnn2C)CC3)n1` [Ref. Ex. 38, 1-methyl-8-[(6-methylpyridin-2-yl)oxy]-4,5-dihydro-1H-thieno[3,4-g]indazole-6-carboxamide], in that order: 152% and 157%.
For `CCCSc1sc(C(N)=O)c2c1-c1c(cnn1C)CC2` [Ref. Ex. 11, 1-methyl-8-(propylsulfanyl)-4,5-dihydro-1H-thieno[3,4-g]indazole-6-carboxamide], in that order: 198% and 239%.
For `CCCCc1sc(C(N)=O)c2c1-c1c(cnn1C)CC2` [Ref. Ex. 14, 8-butyl-1-methyl-4,5-dihydro-1H-thieno[3,4-g]indazole-6-carboxamide], the values for the activity at 1 µM in assay [1] (compound at 1 μM) and in assay [2] were 151% and 265%, respectively.
For `CN(C)c1cccc(Oc2sc(C(N)=O)c3c2-c2c(cnn2C)CC3)c1` [Ref. Ex. 26, 8-[3-(dimethylamino)phenoxy]-1-methyl-4,5-dihydro-1H-thieno[3,4-g]indazole-6-carboxamide], in that order: 156% and 175%.
With `Cn1ncc2c1-c1c(Oc3ccc4c(c3)OCO4)sc(C(N)=O)c1CC2(C)C` [Ref. Ex. 29, 8-(1,3-benzodioxol-5-yloxy)-1,4,4-trimethyl-4,5-dihydro-1H-thieno[3,4-g]indazole-6-carboxamide], the activity at 1 µM in assay [1] (compound at 1 μM) was determined as 183%; in assay [2] it was 264%.
With `Cn1ncc2c1-c1c(Nc3ccccc3)sc(C(N)=O)c1CC2` [Ref. Ex. 12, 1-methyl-8-(phenylamino)-4,5-dihydro-1H-thieno[3,4-g]indazole-6-carboxamide], in assay [1], the activity at 10 µM worked out at 162%.
As to `COc1cccc(Oc2sc(C(N)=O)c3c2-c2c(cnn2C)CC3)c1` [Ref. Ex. 21, 8-(3-methoxyphenoxy)-1-methyl-4,5-dihydro-1H-thieno[3,4-g]indazole-6-carboxamide], the activity at 0.01 µM in assay [1] was 198%. In addition, in assay [2], the activity at 1 µM is 184%.
For `Cn1ncc2c1-c1c(Oc3ccc4ncccc4c3)sc(C(N)=O)c1CC2` [Ref. Ex. 18, 1-methyl-8-(quinolin-6-yloxy)-4,5-dihydro-1H-thieno[3,4-g]indazole-6-carboxamide], in that order: 160% and 220%.
Take `COc1ccc(Oc2sc(C(N)=O)c3c2-c2c(cnn2C)CC3)cn1` [Ref. Ex. 35, 8-[(6-methoxypyridin-3-yl)oxy]-1-methyl-4,5-dihydro-1H-thieno[3,4-g]indazole-6-carboxamide]: the activity at 0.01 µM in assay [1] turned out to be 192%. Further, in assay [2], the activity at 1 µM was 228%.
For `Cn1ncc2c1-c1c(Oc3ccc(OCc4ccccn4)cc3)sc(C(N)=O)c1CC2` [Ref. Ex. 27, 1-methyl-8-[4-(pyridin-2-ylmethoxy)phenoxy]-4,5-dihydro-1H-thieno[3,4-g]indazole-6-carboxamide], in that order: 163% and 198%.
On to `CN(C)c1sc(C(N)=O)c2c1-c1c(cnn1C)CC2` [Ref. Ex. 36, 8-(dimethylamino)-1-methyl-4,5-dihydro-1H-thieno[3,4-g]indazole-6-carboxamide], for which the activity at 1 µM in assay [1] (compound at 1 μM) stood at 139%; in assay [2] it was 211%.
For `CN(CCOc1ncccc1Oc1sc(C(N)=O)c2c1-c1c(cnn1C)CC2)c1ccccc1` [Ref. Ex. 41, 1-methyl-8-[(2-{2-[methyl(phenyl)amino]ethoxy}pyridin-3-yl)oxy]-4,5-dihydro-1H-thieno[3,4-g]indazole-6-carboxamide], in that order: 130% and 120%.
Turning to `Cn1ncc2c1-c1c(OCc3ccncc3)sc(C(N)=O)c1CC2` [Ref. Ex. 5, 1-methyl-8-(pyridin-4-ylmethoxy)-4,5-dihydro-1H-thieno[3,4-g]indazole-6-carboxamide], the activity at 1 µM in assay [1] (compound at 1 μM) worked out at 113%; in assay [2], 124%.
`CCCS(=O)(=O)c1sc(C(N)=O)c2c1-c1c(cnn1C)CC2` [Ref. Ex. 13, 1-methyl-8-(propylsulfonyl)-4,5-dihydro-1H-thieno[3,4-g]indazole-6-carboxamide]: in assay [1], the activity at 10 µM amounted to 128%. Besides, in assay [2], the activity at 1 µM was found to be 154%.
Regarding `Cn1ncc2c1-c1c(Oc3ccc[n+]([O-])c3)sc(C(N)=O)c1CC2` [Ref. Ex. 33, 1-methyl-8-[(1-oxidepyridin-3-yl)oxy]-4,5-dihydro-1H-thieno[3,4-g]indazole-6-carboxamide], in assay [1] (compound at 1 μM), the “creatine kinase activating action (%)” value was found to be 156%. In addition, the “lactic acid production promoting action (%)” value in assay [2] came to 155%.
On to `COCCOc1ccc(Oc2sc(C(N)=O)c3c2-c2c(cnn2C)CC3)cn1` [Ref. Ex. 42, 8-{[6-(2-methoxyethoxy)pyridin-3-yl]oxy}-1-methyl-4,5-dihydro-1H-thieno[3,4-g]indazole-6-carboxamide], for which the activity at 0.01 µM in assay [1] is 179%. Also, the activity at 1 µM in assay [2] amounted to 319%.
